Each compound was assayed against T1, human factor VIIa and TF (factor VIIa/TF) (Homo sapiens, UniProt P08709) (assay: Factor VIIa (FVIIa) chromogenic assay). Settings: inhibition constant towards factor VIIa/TF activity; chromogenic substrate S-2288 500 μM; 25° C.; 15 minute preincubation; factor VIIa 5 nM, TF 10 nM.
T1 construct: human factor VIIa and TF (5 nM and 10 nM, respective final concentration)
T1 sequence (P08709 61-212 limits assumed): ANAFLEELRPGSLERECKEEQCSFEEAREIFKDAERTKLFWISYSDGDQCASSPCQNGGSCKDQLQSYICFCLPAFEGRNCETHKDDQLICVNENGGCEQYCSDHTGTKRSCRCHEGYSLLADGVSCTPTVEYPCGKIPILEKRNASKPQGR
T1 sequence (P08709 213-466 limits assumed): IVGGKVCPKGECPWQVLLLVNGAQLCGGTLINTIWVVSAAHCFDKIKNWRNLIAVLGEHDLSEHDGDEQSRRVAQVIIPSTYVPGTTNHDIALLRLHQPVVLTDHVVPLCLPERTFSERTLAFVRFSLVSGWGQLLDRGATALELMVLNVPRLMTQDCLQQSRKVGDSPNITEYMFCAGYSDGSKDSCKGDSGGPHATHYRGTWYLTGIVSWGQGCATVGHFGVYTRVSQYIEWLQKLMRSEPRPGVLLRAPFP
T1 sequence (P13726 33-295 partner): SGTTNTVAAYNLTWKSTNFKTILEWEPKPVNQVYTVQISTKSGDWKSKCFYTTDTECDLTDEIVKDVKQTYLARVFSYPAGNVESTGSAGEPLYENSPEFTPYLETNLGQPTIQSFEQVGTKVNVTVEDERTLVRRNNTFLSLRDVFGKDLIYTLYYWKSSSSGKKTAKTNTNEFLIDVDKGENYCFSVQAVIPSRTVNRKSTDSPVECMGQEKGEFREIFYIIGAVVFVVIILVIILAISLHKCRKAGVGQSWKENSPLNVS
Assay type: biochemical
Procedure: The ability of compounds of formula I to inhibit factor VIIa or other enzymes like factor Xa, thrombin, plasmin, or trypsin can be assessed by determining the concentration of the compound of formula I that inhibits enzyme activity by 50%, i.e., the IC50 value, which is related to the inhibition constant Ki. Purified enzymes are used in chromogenic assays. The concentration of inhibitor that causes a 50% decrease in the rate of substrate hydrolysis is determined by linear regression after plotting the relative rates of hydrolysis (compared to the uninhibited control) versus the log of the concentration of the compound of formula I. For calculating the inhibition constant Ki, the IC50 value is corrected for competition with substrate using the formula Ki=IC50/[1+(substrate concentration/Km)] wherein Km is the Michaelis-Menten constant (Chen and Prusoff, Biochem. Pharmacol. 22 (1973), 3099-3108; I. H. Segal, Enzyme Kinetics, 1975, John Wiley & Sons, New York, 100–125; which are incorporated herein by reference). Factor VIIa (FVIIa) Assay:
The inhibitory activity (expressed as inhibition constant Ki (FVIIa)) of compounds of formula I towards factor VIIa/TF activity was determined using a chromogenic assay essentially as described previously (J. A. Ostrem et al., Biochemistry 37 (1998) 1053–1059, which is incorporated herein by reference). Kinetic assays were conducted at 25° C. in half-area microtiter plates (Costar Corp., Cambridge, Mass.) using a kinetic plate reader (Molecular Devices Spectramax 250). A typical assay consisted of 25 μl human factor VIIa and TF (5 nM and 10 nM, respective final concentration) combined with 40 μl of inhibitor dilutions in 10% DMSO/TBS-PEG buffer (50 mM Tris, 15 mM NaCl, 5 mM CaCl2, 0.05% PEG 8000, pH 8.15). Following a 15 minute preincubation period, the assay was initiated by the addition of 35 μl of the chromogenic substrate S-2288 (D-IIe-Pro-Arg-p-nitroanilide, Pharmacia Hepar Inc., 500 μM final concentration).
In the case of N=C(N)c1ccc(NC(=O)C(C(=O)OCc2ccccc2)c2ccccc2)cc1 (stereo not drawn) [Example 1, N-(4-Carbamimidoyl-Phenyl)-2-Phenyl-Malonamic Acid Benzyl Ester], the Ki is reported as 14 µM. For CC(NC(=O)C(C(=O)Nc1ccc(C(=N)N)cc1)c1ccccc1)c1ccc([N+](=O)[O-])cc1 (stereo not drawn) [Example 3, N-(4-Carbamimidoyl-Phenyl)-N′-[1-(4-Nitro-Phenyl)-Ethyl]-2-Phenyl-Malonamide, Formiate], the Ki was 0.198 µM. Work on N#CC(NC(=O)C(C(=O)Nc1ccc(C(=N)N)cc1)c1ccccc1)c1ccccc1 (stereo not drawn) [Example 6] yielded a Ki of 3.82 µM. In the case of COc1ccc2c(c1)C[C@@H](NC(=O)C(C(=O)Nc1ccc(C(=N)N)cc1)c1ccccc1)CC2 (stereo partly drawn) [Example 8], the Ki is reported as 7.12 µM. Work on C[C@H](NC(=O)C(C(=O)Nc1ccc(C(=N)N)cc1)c1ccccc1)c1ccc(Br)cc1 (stereo partly drawn) [Example 12] yielded a Ki of 0.301 µM. With N=C(N)c1ccc(NC(=O)C(C(=O)NCc2c(Cl)cccc2Oc2ccccc2)c2ccccc2)cc1 (stereo not drawn) [Example 17] the Ki was 6.62 µM. Compound C[C@H](NC(=O)C(C(=O)Nc1ccc(C(=N)N)cc1)c1ccccc1)c1cccc(Br)c1 (stereo partly drawn) [Example 23] has a Ki of 0.157 µM. Compound COc1ccc([C@H](C)NC(=O)C(C(=O)Nc2ccc(C(=N)N)cc2)c2ccccc2)cc1 (stereo partly drawn) [Example 26] has a Ki of 0.381 µM. N=C(N)c1ccc(NC(=O)C(C(=O)NCc2ccc(-c3csnn3)cc2)c2ccccc2)cc1 (stereo not drawn) [Example 28] was tested, and the Ki was 6.02 µM. N=C(N)c1ccc(NC(=O)C(C(=O)NCc2cccc([N+](=O)[O-])c2)c2ccccc2)cc1 (stereo not drawn) [Example 35] gave a Ki of 3.01 µM. For COc1ccc(CNC(=O)C(C(=O)Nc2ccc(C(=N)N)cc2)c2ccccc2)cc1OC (stereo not drawn) [Example 38], the Ki was 17.4 µM. For N=C(N)c1ccc(NC(=O)C(CCc2ccccc2)C(=O)NCc2ccccc2)cc1 (stereo not drawn) [Example 40], the Ki was 2.81 µM. C[C@H](NC(=O)C(CCc1ccccc1)C(=O)Nc1ccc(C(=N)N)cc1)c1ccc2ccccc2c1 (stereo partly drawn) [Example 42] was tested, and the Ki was 17.1 µM. In the case of C[C@H](NC(=O)C(C(=O)Nc1ccc(C(=N)N)cc1)c1ccccc1)c1ccc2ccccc2c1 (stereo partly drawn) [Example 43], the Ki is reported as 0.124 µM. With C[C@H](NC(=O)CC(=O)Nc1ccc(C(=N)N)cc1)c1ccc2ccccc2c1 [Example 44] the Ki was 0.376 µM.
